Ends that are not written are not given here.
Legend:
C. albicans MYA-2876 = experiment: MIC, YPD broth; format: cell-based, Candida albicans; settings: Table 8
How it was run: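 Minimum inhibitory concentrations against Candida albicans were determined in YPD broth (10 g/L yeast extract, 20 g/L peptone, 20 g/L dextrose) using peptides of 95% purity. A 180 μl volume of diluted yeast was combined with 20 μl of peptide in a 2-fold dilution series in 96-well plates, with sterile water as control, then incubated standing overnight at 37° C.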

C. albicans Y537 = experiment: MIC, YPD broth; format: cell-based, Candida albicans; settings: Table 8
Kodamae ohmeri AR 396 = experiment: MIC, YPD broth, CDC and FDA AR Candida isolate panel; format: cell-based
How it was run: (§1)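 Broth microdilution in YPD; yeast diluted to optical density […] and mixed with 2-fold serial dilutions of peptide (95% purity), water control. Standing cultures incubated overnight at 37 °C.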

[1] = system: Candida duobushaemulonii AR 391; experiment: as above; format: cell-based
How it was run: as §1

Candida krusei AR 397 = experiment: as above; format: cell-based
How it was run: as §1

[2] = system: Saccharomyces cerevisiae AR 399; experiment: as above; format: cell-based
How it was run: as §1

[3] = system: Saccharomyces cerevisiae AR 400; experiment: as above; format: cell-based
How it was run: as §1

[4] = system: Candida lusitaniae AR 398; experiment: as above; format: cell-based
How it was run: as §1

[5] = system: Candida duobushaemulonii AR 394; experiment: as above; format: cell-based
How it was run: as §1

[6] = system: Candida duobushaemulonii AR 392; experiment: as above; format: cell-based
How it was run: as §1

[7] = system: S. aureus ATCC BAA-1683 (MRSA SCCmec type IV); experiment: MIC, broth dilution; format: cell-based, Staphylococcus aureus; settings: Table 5; STIP3 variants, highest concentration 100 μg/mL
How it was run: (§2)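 Peptides of 95% purity tested as 2-fold dilution series against bacteria diluted to OD 6×10^−4 in cation-adjusted Mueller Hinton broth. Standing cultures incubated overnight at 37° C; MIC is the lowest concentration with no visible growth.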

[8] = system: S. aureus ATCC BAA-42 (MRSA SCCmec type VI); experiment: MIC, broth dilution; format: cell-based, Staphylococcus aureus; settings: Table 5; STIP3 variants, highest concentration 100 μg/mL
How it was run: as §2

[9] = system: S. aureus ATCC 33592 (MRSA SCCmec type III); experiment: MIC, broth dilution; format: cell-based, Staphylococcus aureus; settings: Table 5; STIP3 variants, highest concentration 100 μg/mL
How it was run: as §2

[10] = system: S. aureus ATCC BAA-2094 (MRSA SCCmec type V); experiment: MIC, broth dilution; format: cell-based, Staphylococcus aureus; settings: Table 5; STIP3 variants, highest concentration 100 μg/mL
How it was run: as §2

[11] = system: S. aureus ATCC BAA-44 (MRSA SCCmec type I); experiment: MIC, broth dilution; format: cell-based, Staphylococcus aureus; settings: Table 5; STIP3 variants, highest concentration 100 μg/mL
How it was run: as §2

[12] = system: S. aureus ATCC BAA-41 (MRSA SCCmec type II); experiment: MIC, broth dilution; format: cell-based, Staphylococcus aureus; settings: Table 5; STIP3 variants, highest concentration 100 μg/mL
How it was run: as §2

S. aureus ATCC 29213 = experiment: MIC, broth dilution; format: cell-based, Staphylococcus aureus; settings: Table 5; STIP3 variants, highest concentration 100 μg/mL
How it was run: as §2

[13] = system: S. aureus ATCC BAA-2313 (MRSA SCCmec type XI); experiment: MIC, broth dilution; format: cell-based, Staphylococcus aureus; settings: Table 5; STIP3 variants, highest concentration 100 μg/mL
How it was run: as §2

[14] = system: Mannheimia haemolytica ATCC 33393; experiment: MIC, broth dilution; format: cell-based; settings: Table 11; highest concentration 25 μg/mL
How it was run: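 Peptides (95% purity) in 2-fold dilution series were mixed with M. haemolytica diluted to OD 6×10^−4 in cation-adjusted Mueller Hinton broth and incubated standing overnight at 37 °C. MIC was the lowest concentration with no visible growth.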

[15] = system: Candida haemulonii AR 393; experiment: MIC, YPD broth, CDC and FDA AR Candida isolate panel; format: cell-based; settings: Table 9 below the line: only 200 or 100 μg/mL tested; values reported as 100 are ≤100 μg/mL
How it was run: as §1

[16] = system: Candida haemulonii AR 395; experiment: as above; format: cell-based; settings: Table 9 below the line: only 200 or 100 μg/mL tested; values reported as 100 are ≤100 μg/mL
How it was run: as §1

[17] = Table 9 top part: titrations from 1.56 to 100 μg/mL
[18] = Table 9 below the line: only 200 or 100 μg/mL tested, values reported as 100 are ≤100 μg/mL

Substance | MIC C. albicans MYA-2876 (C. albicans MYA-2876) | MIC C. albicans Y537 (C. albicans Y537) | MIC (μg/mL) Kodamae ohmeri AR 396 (Kodamae ohmeri AR 396; [17]) | MIC (μg/mL) Candida krusei AR 397 (Candida krusei AR 397; [17]) | MIC (μg/mL) Saccharomyces cerevisiae AR 400 [3, 17] | MIC (μg/mL) Candida lusitaniae AR 398 [4, 17] | MIC (μg/mL) Candida duobushaemulonii AR 392 [6, 17] | MIC S. aureus ATCC BAA 1683 (IV) [7] | MIC S. aureus ATCC BAA 42 (VI) [8] | MIC S. aureus ATCC 33592 (III) [9] | MIC S. aureus ATCC BAA 2094 (V) [10] | MIC S. aureus ATCC BAA 44 (I) [11] | MIC S. aureus ATCC BAA 41 (II) [12] | MIC S. aureus ATCC 29213 (S. aureus ATCC 29213) | MIC S. aureus ATCC BAA 2313 (XI) [13] | MIC (μg/mL) M. haemolytica [14] | MIC (μg/mL) Kodamae ohmeri AR 396 (Kodamae ohmeri AR 396; [18]) | MIC (μg/mL) Candida duobushaemulonii AR 391 [1, 18] | MIC (μg/mL) Candida krusei AR 397 (Candida krusei AR 397; [18]) | MIC (μg/mL) Saccharomyces cerevisiae AR 399 [2, 18] | further results
TVKALVKWILKTVAKFA [STIP3-19, TVKALVKWILKTVAKFA] | > (> symbol indicates that no inhibition was observed at the highest concentration of peptide tested: 100 μg/mL) | > (> symbol indicates that no inhibition was observed at the highest concentration of peptide tested: 100 μg/mL) | > (MIC values reported at the top of the table (above the double line) are based on titrations from 1.56 to 100 μg/mL) | 100 µg/mL | 50 µg/mL | 50 µg/mL | 100 µg/mL | 25 µg/mL | 50 µg/mL | 25 µg/mL | 25 µg/mL | 25 µg/mL | 50 µg/mL | 50 µg/mL | 25 µg/mL | 12.5 µg/mL | – | – | – | – | MIC (μg/mL) Candida duobushaemulonii AR 391 [1, 17]: 50 µg/mL; MIC (μg/mL) Saccharomyces cerevisiae AR 399 [2, 17]: 100 µg/mL; MIC (μg/mL) Candida duobushaemulonii AR 394 [5, 17]: 100 µg/mL
TVKALVKWILKTVAKFW [STIP3-21, TVKALVKWILKTVAKFW] | > (> symbol indicates that no inhibition was observed at the highest concentration of peptide tested: 100 μg/mL) | > (> symbol indicates that no inhibition was observed at the highest concentration of peptide tested: 100 μg/mL) | > (MIC values reported at the top of the table (above the double line) are based on titrations from 1.56 to 100 μg/mL) | 100 µg/mL | 200 µg/mL | 50 µg/mL | > (MIC values reported at the top of the table (above the double line) are based on titrations from 1.56 to 100 μg/mL) | 12.5 µg/mL | 25 µg/mL | 25 µg/mL | 12.5 µg/mL | 25 µg/mL | 25 µg/mL | 25 µg/mL | 12.5 µg/mL | 12.5 µg/mL | – | – | – | – | –
TVKALVKWILKTVAKFW-NH2 [STIP3-31, TVKALVKWILKTVAKFW-NH2] | > (> symbol indicates that no inhibition was observed at the highest concentration of peptide tested: 100 μg/mL) | > (> symbol indicates that no inhibition was observed at the highest concentration of peptide tested: 100 μg/mL) | – | – | – | – | – | 25 µg/mL | 50 µg/mL | 25 µg/mL | 25 µg/mL | 25 µg/mL | 25 µg/mL | 25 µg/mL | 25 µg/mL | 6.25 µg/mL | > (values below the line were determined using two concentrations of peptide 200 or 100 μg/mL) | > (values below the line were determined using two concentrations of peptide 200 or 100 μg/mL) | > (values below the line were determined using two concentrations of peptide 200 or 100 μg/mL) | > (values below the line were determined using two concentrations of peptide 200 or 100 μg/mL) | MIC (μg/mL) Saccharomyces cerevisiae AR 400 [3, 18]: > (values below the line were determined using two concentrations of peptide 200 or 100 μg/mL); MIC (μg/mL) Candida lusitaniae AR 398 [4, 18]: > (values below the line were determined using two concentrations of peptide 200 or 100 μg/mL); MIC (μg/mL) Candida duobushaemulonii AR 394 [5, 18]: > (values below the line were determined using two concentrations of peptide 200 or 100 μg/mL); MIC (μg/mL) Candida duobushaemulonii AR 392 [6, 18]: > (values below the line were determined using two concentrations of peptide 200 or 100 μg/mL); MIC (μg/mL) Candida haemulonii AR 393 [15]: > (values below the line were determined using two concentrations of peptide 200 or 100 μg/mL)
TVRALVRWILRTVARFA [STIP3-23, TVRALVRWILRTVARFA] | > (> symbol indicates that no inhibition was observed at the highest concentration of peptide tested: 100 μg/mL) | – | – | – | – | – | – | 25 µg/mL | 50 µg/mL | 25 µg/mL | 50 µg/mL | 25 µg/mL | 6.25 µg/mL | 25 µg/mL | 25 µg/mL | 12.5 µg/mL | > (values below the line were determined using two concentrations of peptide 200 or 100 μg/mL) | > (values below the line were determined using two concentrations of peptide 200 or 100 μg/mL) | > (values below the line were determined using two concentrations of peptide 200 or 100 μg/mL) | ≤ 100 µg/mL | MIC (μg/mL) Saccharomyces cerevisiae AR 400 [3, 18]: ≤ 100 µg/mL; MIC (μg/mL) Candida lusitaniae AR 398 [4, 18]: ≤ 100 µg/mL; MIC (μg/mL) Candida haemulonii AR 395 [16]: > (values below the line were determined using two concentrations of peptide 200 or 100 μg/mL); MIC (μg/mL) Candida duobushaemulonii AR 394 [5, 18]: > (values below the line were determined using two concentrations of peptide 200 or 100 μg/mL); MIC (μg/mL) Candida duobushaemulonii AR 392 [6, 18]: > (values below the line were determined using two concentrations of peptide 200 or 100 μg/mL); MIC (μg/mL) Candida haemulonii AR 393 [15]: > (values below the line were determined using two concentrations of peptide 200 or 100 μg/mL)

— patent publication US12370235B2, “Synthetic, non-natural antimicrobial peptides inspired by Staphylococcus auricularis delta toxin” (University of Saskatchewan, priority 2021, dated 2025)
